Among the data in ChEMBL document CHEMBL5131471, “Design, synthesis and mechanism studies of novel dual PARP1/BRD4 inhibitors against pancreatic cancer” (Eur J Med Chem, 2022) are IC50 values, retold here.

A word on the IC50: it is the concentration that inhibits the measured activity by half.

For test [1], the system named is SW1990. Description: Antiproliferative activity against human SW1990 cells assessed as inhibition of cell growth measured after 4 days by MTT assay. It is filed as functional, cell-based. To be noted: SW1990, 96 h. (In general: Tetrazolium assays rely on reduction of a dye to a coloured formazan, in cell work by metabolically active cells.)
For test [2], the system named is MDA-MB-231. Description: Antiproliferative activity against BRCA-proficient human MDA-MB-231 cells assessed as inhibition of cell growth measured after 7 days by MTT assay. Type of test: functional, cell-based. To be noted: MDA-MB-231, 168 h.
Test [3] relates to MDA-MB-468. Description: Antiproliferative activity against BRCA-proficient human MDA-MB-468 cells assessed as inhibition of cell growth measured after 7 days by MTT assay. It is filed as functional, cell-based. Particulars: MDA-MB-468, 168 h.
The subject of test [4] is CAPAN-1. Description: Antiproliferative activity against human CAPAN-1 cells assessed as inhibition of cell growth measured after 4 days by MTT assay. Particulars: CAPAN-1, 96 h. It is filed as functional, cell-based.
In test [5] the target is Poly [ADP-ribose] polymerase 1 (Homo sapiens, UniProt P09874). Description: Inhibition of PARP1 (unknown origin) using biotinylated NAD+ as substrate by microplate reader method.
Sequence of Poly [ADP-ribose] polymerase 1 (P09874 whole entry): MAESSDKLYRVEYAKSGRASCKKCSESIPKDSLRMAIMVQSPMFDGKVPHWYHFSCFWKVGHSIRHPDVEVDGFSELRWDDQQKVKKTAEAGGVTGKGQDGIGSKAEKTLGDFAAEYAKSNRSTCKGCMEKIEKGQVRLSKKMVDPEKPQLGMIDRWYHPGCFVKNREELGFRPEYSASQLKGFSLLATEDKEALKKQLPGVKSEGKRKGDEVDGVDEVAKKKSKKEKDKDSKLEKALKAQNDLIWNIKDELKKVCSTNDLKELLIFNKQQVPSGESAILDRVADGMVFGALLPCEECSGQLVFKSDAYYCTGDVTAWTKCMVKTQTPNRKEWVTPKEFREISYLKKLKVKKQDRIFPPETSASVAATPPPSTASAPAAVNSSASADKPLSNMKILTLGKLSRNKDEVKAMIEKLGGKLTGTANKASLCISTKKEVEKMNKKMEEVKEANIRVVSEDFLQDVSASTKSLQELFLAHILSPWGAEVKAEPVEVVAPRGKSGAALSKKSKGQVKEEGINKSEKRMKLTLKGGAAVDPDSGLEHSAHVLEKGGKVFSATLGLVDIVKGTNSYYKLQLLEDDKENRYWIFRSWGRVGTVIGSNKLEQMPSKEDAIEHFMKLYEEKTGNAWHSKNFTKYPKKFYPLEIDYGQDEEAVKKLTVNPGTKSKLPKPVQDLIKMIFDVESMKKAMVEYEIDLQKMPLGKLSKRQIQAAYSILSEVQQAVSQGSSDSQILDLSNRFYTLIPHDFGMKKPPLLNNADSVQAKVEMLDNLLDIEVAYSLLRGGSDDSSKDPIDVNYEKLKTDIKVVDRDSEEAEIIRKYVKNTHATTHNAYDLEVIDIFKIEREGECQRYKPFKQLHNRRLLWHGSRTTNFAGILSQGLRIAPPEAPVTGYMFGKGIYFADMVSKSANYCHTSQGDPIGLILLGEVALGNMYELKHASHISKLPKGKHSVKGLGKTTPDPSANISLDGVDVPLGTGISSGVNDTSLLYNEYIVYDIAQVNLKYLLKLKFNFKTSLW
In test [6] the test system is HCT-116. In words: Antiproliferative activity against BRCA2-mutated human HCT-116 cells assessed as inhibition of cell growth measured after 7 days by MTT assay. It is filed as functional, cell-based. Particulars: HCT-116, 168 h.
In test [7] the test system is CFPAC-1. Description: Antiproliferative activity against human CFPAC-1 cells assessed as inhibition of cell growth measured after 4 days by MTT assay. Type of test: functional, cell-based. Particulars: CFPAC-1, 96 h.
For test [8], the target named is Bromodomain-containing protein 4 (Homo sapiens, UniProt O60885). In words: Inhibition of BRD4-BD1/2 (unknown origin).
For test [9], the system named is THP-1. Description: Antiproliferative activity against human THP-1 cells expressing BRD4 assessed as inhibition of cell growth measured after 3 days by MTT assay. It is filed as functional, cell-based. To be noted: THP-1, 72 h.

On to `Cc1noc(C)c1-c1ccc2c(c1)C(c1ccccc1)N(CC(=O)NC(C)(C)c1nc3c(C(N)=O)cccc3[nH]1)C(=O)N2` (stereo unspecified), for which the IC50 came out at 3.88 µM in test [1]; 920 nM in test [2]; 460 nM in test [3]; 3.71 µM in test [4]; 62 nM in test [5]; 11.8 µM in test [6]. For the same compound, the IC50 was determined as 2560 nM in test [7], 102 nM in test [8] and 690 nM in test [9].
In the case of `Cc1noc(C)c1-c1ccc2c(c1)C(c1ccccc1)N(CC(=O)NCc1nc3c(C(N)=O)cccc3[nH]1)C(=O)N2C` (stereo unspecified), the IC50 in [5] is 73 nM; in test [8] it was 534 nM.
As for `Cc1noc(C)c1-c1ccc2c(c1)C(c1ccccc1)N(CC(=O)N[C@@H](C)c1nc3c(C(N)=O)cccc3[nH]1)C(=O)N2` (stereo partly specified), the IC50 in test [2] was determined as 2630 nM; in test [3], 1040 nM; in test [5] it was 52 nM; in test [6] it was 16.5 µM; in test [8] it was 90 nM; in [9], 1660 nM.
In the case of `Cc1noc(C)c1-c1ccc2c(c1)C(c1ccccc1)N(CC(=O)N[C@H](C)c1nc3c(C(N)=O)cccc3[nH]1)C(=O)N2` (stereo partly specified), the IC50 in test [2] worked out at 2600 nM; in [3] it was 930 nM; in [5], 112 nM; in [6], 16.9 µM; in test [8], 116 nM; in [9], 1530 nM.
Take `Cc1noc(C)c1-c1ccc2c(c1)C(c1ccccc1)N(Cc1nc3c(C(N)=O)cccc3[nH]1)C(=O)N2` (stereo unspecified): the IC50 is 2.52 µM in test [1]; 1320 nM in [2]; 1120 nM in test [3]; 2.31 µM in [4]; 361 nM in test [5]; 3.72 µM in test [6]. The IC50 in test [7] came out at 2030 nM; in test [8] it was 43 nM; in test [9], 210 nM.
With `Cc1noc(C)c1-c1ccc2c(c1)C(c1ccccc1)N(CC(=O)NC(c1nc3c(C(N)=O)cccc3[nH]1)C(C)C)C(=O)N2` (stereo unspecified), the values for the IC50 in [5] and in [8] were 326 nM and 114 nM, respectively.
On to `Cc1noc(C)c1-c1ccc2c(c1)C(c1ccccc1)N(CC(=O)N[C@@H](C)c1nc3c(C(N)=O)cccc3[nH]1)C(=O)N2C` (stereo partly specified), for which the IC50 in test [2] turned out to be 520 nM; in [3], 380 nM; in test [5], 187 nM; in test [6] it was 5.29 µM; in test [8] it was 326 nM; in [9], 740 nM.
Turning to `Cc1noc(C)c1-c1ccc2c(c1)C(c1ccccc1)N(CC(=O)c1nc3c(C(N)=O)cccc3[nH]1)C(=O)N2` (stereo unspecified), the IC50 in [2] was 8090 nM; in test [3], 2590 nM; in test [5], 116 nM; in test [6], 44.4 µM; in test [8], 132 nM; in test [9], 4090 nM.
